System: primary human pancreatic cells
Assay: Attachment and growth of primary pancreatic cells on ECM-coated surfaces (cell counting, MTS metabolic activity assay)
Type: cell-based
Settings: 10^5 cells/cm^2, grown 8 days; FIG. 4A
Procedure: The attachment of primary human pancreatic cells was evaluated by counting the number of attached cells vs. the number of cells initially seeded on a panel of ECM surfaces comprised of Collagen I (1 μg/cm^2), Fibronectin (3 μg/cm^2), Laminin (2 μg/cm^2), Vitronectin (1 μg/cm^2), Matrigel (1 μg/cm^2), Human ECM (1 μg/cm^2), or Poly-D -Lysine (3 μg/cm^2). In one condition, a mixture of Collagen IV, Laminin, and Fibronectin was utilized. […] Excess ECM solution was then removed and surfaces were rinsed twice in water. Just before seeding cells, the water was aspirated, then cells were seeded onto the ECM surface at a density of 1×10^5 cells/cm^2 in growth medium (PCM) composed of DMEM:HamsF12 mixture (1:1) with 4 mM glutamine, 1×ITS supplement (GIBCO 51500-056), 10% Fetal Calf Serum (Inactivated, Qualified, GIBC 26140-079), and 10 ng/ml Epidermal Growth Factor (EGF) (BD 4001). Cells were seeded onto tissue-culture polystyrene surface as a control. […] The metabolic activity of cells subjected to the various conditions was determined by an MTS assay. Viable cells were measured using the MTS assay (Promega CellTiter 96 Aqueous One Solution Cell Proliferation Assay), a colorimetric method for determining the number of viable cells in proliferation or cytotoxicity. […]

Row | Substance | cell attachment and expansion on coated surface
1 | Laminin | suitable surface for cell attachment and expansion
2 | Fibronectin | suitable surface for cell attachment and expansion

From patent publication US20060122104A1, “Methods for in vitro expansion and transdifferentiation of human pancreatic acinar cells into insulin-producing cells” (priority 2002, published 2006)
